Assay results from the NIST ThermoML archive (doi:10.1016/j.jct.2011.09.001).
± gives the expanded uncertainty stated by the source.

Tests used:
[1] = refractive index (Na D-line) (dimensionless); xn = mol fraction of the nth substance listed; conditions: 101 kPa, Liquid, Standard Abbe refractometry
[2] = xn = mol fraction of the nth substance listed; conditions: 101 kPa, Liquid; for speed of sound: Sing-around technique in a fixed-path interferometer; for mass density: Vibrating tube method

c1ccc2c(c1)CCCC2 [1,2,3,4-tetrahydronaphthalene] + CCCCCCCCCC
Conditions | mass density, 293.15 K [kg/m3] | refractive index, 293.15 K | refractive index, 303.15 K | refractive index, 313.15 K | refractive index, 323.15 K | refractive index, 333.15 K | refractive index, 343.15 K | speed of sound, 293.15 K [m/s] | speed of sound, 303.15 K [m/s]
[1], x1 = 0.1008 | – | 1.4216 ± 0.0005 | 1.4171 ± 0.0005 | 1.4126 ± 0.0005 | 1.4081 ± 0.0005 | 1.4035 ± 0.0005 | 1.3988 ± 0.0005 | – | –
[1], x1 = 0.2034 | – | 1.4319 ± 0.0005 | 1.4274 ± 0.0005 | 1.4229 ± 0.0005 | 1.4183 ± 0.0005 | 1.4137 ± 0.0005 | 1.4092 ± 0.0005 | – | –
[1], x1 = 0.3 | – | 1.4422 ± 0.0005 | 1.4376 ± 0.0005 | 1.4331 ± 0.0005 | 1.4285 ± 0.0005 | 1.4238 ± 0.0005 | 1.4192 ± 0.0005 | – | –
[1], x1 = 0.401 | – | 1.4535 ± 0.0005 | 1.449 ± 0.0005 | 1.4445 ± 0.0005 | 1.4399 ± 0.0005 | 1.4355 ± 0.0005 | 1.4308 ± 0.0005 | – | –
[1], x1 = 0.494 | – | 1.4648 ± 0.0005 | 1.4602 ± 0.0005 | 1.4556 ± 0.0005 | 1.4511 ± 0.0005 | 1.4463 ± 0.0005 | 1.4418 ± 0.0005 | – | –
[1], x1 = 0.5949 | – | 1.4778 ± 0.0005 | 1.4733 ± 0.0005 | 1.4688 ± 0.0005 | 1.4642 ± 0.0005 | 1.4597 ± 0.0005 | 1.4549 ± 0.0005 | – | –
[1], x1 = 0.7009 | – | 1.4925 ± 0.0005 | 1.488 ± 0.0005 | 1.4835 ± 0.0005 | 1.479 ± 0.0005 | 1.4744 ± 0.0005 | 1.4697 ± 0.0005 | – | –
[1], x1 = 0.7974 | – | 1.5071 ± 0.0005 | 1.5026 ± 0.0005 | 1.498 ± 0.0005 | 1.4933 ± 0.0005 | 1.4887 ± 0.0005 | 1.4841 ± 0.0005 | – | –
[1], x1 = 0.8997 | – | 1.5239 ± 0.0005 | 1.5193 ± 0.0005 | 1.5148 ± 0.0005 | 1.5102 ± 0.0005 | 1.5055 ± 0.0005 | 1.5008 ± 0.0005 | – | –
[1], x1 = 1 | – | 1.5414 ± 0.0005 | 1.5367 ± 0.0005 | 1.5321 ± 0.0005 | 1.5274 ± 0.0005 | 1.5228 ± 0.0005 | 1.518 ± 0.0005 | – | –
[2], x1 = 0.1008 | 747.8 ± 0.3 | – | – | – | – | – | – | 1269.3 ± 1.2 | 1230 ± 1.2
[2], x1 = 0.2034 | 766.8 ± 0.3 | – | – | – | – | – | – | 1285.2 ± 1.2 | 1246.1 ± 1.2
[2], x1 = 0.3 | 786.3 ± 0.3 | – | – | – | – | – | – | 1302.2 ± 1.2 | 1263.3 ± 1.2
[2], x1 = 0.401 | 807.5 ± 0.3 | – | – | – | – | – | – | 1320.2 ± 1.2 | 1281.4 ± 1.2
[2], x1 = 0.494 | 828.5 ± 0.2 | – | – | – | – | – | – | 1340.6 ± 1.2 | 1301.9 ± 1.2
[2], x1 = 0.5949 | 852.8 ± 0.2 | – | – | – | – | – | – | 1363.5 ± 1.2 | 1324.9 ± 1.2
[2], x1 = 0.7009 | 880.2 ± 0.2 | – | – | – | – | – | – | 1391.2 ± 1.2 | 1352.5 ± 1.2
[2], x1 = 0.7974 | 907 ± 0.3 | – | – | – | – | – | – | 1418.8 ± 1.2 | 1380.1 ± 1.2
[2], x1 = 0.8997 | 937.9 ± 0.3 | – | – | – | – | – | – | 1452.7 ± 1.2 | 1413.8 ± 1.2
[2], x1 = 1 | 969.5 ± 0.2 | – | – | – | – | – | – | 1489.5 ± 1.3 | 1450.1 ± 1.2
